Measurements published in the NIST ThermoML archive (doi:10.1021/acs.jced.9b00026).

Legend:
[1] = wn = mass fraction of the nth substance listed; settings: for surface tension liquid-gas: Ring tensiometer; for mass density: 101 kPa, Liquid, Vibrating tube method
[2] = Ring tensiometer

C[C@H](O)C(=O)O [(S)-2-hydroxypropanoic acid] + O
[1]
Settings | mass density, w1 = 0.01 [kg/m3] | surface tension liquid-gas, w1 = 0.002 [mN/m] | surface tension liquid-gas, w1 = 0.004 [mN/m] | surface tension liquid-gas, w1 = 0.006 [mN/m] | surface tension liquid-gas, w1 = 0.008 [mN/m]
298 K | 999.5 | 70.66 | 69.69 | 68.73 | 67.69
308 K | – | 69.32 | 68.36 | 67.63 | 67.06
318 K | – | 68.04 | 67.36 | 66.46 | 65.96
328 K | – | 67.07 | 66.17 | 65.34 | 64.92

NC(=O)CC[C@H](N)C(=O)O [L-glutamine] + O
[1]
Settings | mass density, w1 = 0.005 [kg/m3] | surface tension liquid-gas, w1 = 0.00499 [mN/m] | surface tension liquid-gas, w1 = 0.00998 [mN/m] | surface tension liquid-gas, w1 = 0.01501 [mN/m] | surface tension liquid-gas, w1 = 0.02001 [mN/m] | surface tension liquid-gas, w1 = 0.02499 [mN/m] | surface tension liquid-gas, w1 = 0.02999 [mN/m]
298 K | 998.8 | 71.43 | 71.49 | 71.53 | 71.55 | 71.55 | 71.55
308 K | – | 69.29 | 69.65 | 69.78 | 69.89 | 69.96 | 70.02
318 K | – | 68.34 | 68.42 | 68.59 | 68.58 | 68.64 | 68.67
328 K | – | 66.55 | 66.69 | 66.76 | 66.85 | 66.98 | 67.04

CSCC[C@H](N)C(=O)O [L-methionine] + O
[1]
Settings | mass density, w1 = 0.005 [kg/m3] | surface tension liquid-gas, w1 = 0.005 [mN/m] | surface tension liquid-gas, w1 = 0.01 [mN/m] | surface tension liquid-gas, w1 = 0.02 [mN/m] | surface tension liquid-gas, w1 = 0.03 [mN/m] | surface tension liquid-gas, w1 = 0.04001 [mN/m]
298 K | 998.5 | 71.39 | 71.3 | 71.02 | 70.77 | 70.61
308 K | – | 69.89 | 69.69 | 69.45 | 69.15 | 68.9
318 K | – | 68.4 | 68.3 | 68.06 | 67.74 | 67.28
328 K | – | 66.65 | 66.56 | 66.32 | 65.78 | 64.97

O=C(O)[C@@H]1CCCN1 [L-proline] + O
[1]
Settings | mass density, w1 = 0.02 [kg/m3] | surface tension liquid-gas, w1 = 0.01996 [mN/m] | surface tension liquid-gas, w1 = 0.03996 [mN/m] | surface tension liquid-gas, w1 = 0.05995 [mN/m] | surface tension liquid-gas, w1 = 0.07996 [mN/m] | surface tension liquid-gas, w1 = 0.09995 [mN/m]
298 K | 1002.6 | 71.56 | 71.56 | 71.55 | 71.5 | 71.45
308 K | – | 70.14 | 70.13 | 70.12 | 70.05 | 69.95
318 K | – | 68.51 | 68.51 | 68.46 | 68.44 | 68.4
328 K | – | 66.8 | 66.79 | 66.75 | 66.67 | 66.46

N[C@@H](CO)C(=O)O [L-serine] + O
[1]
Settings | mass density, w1 = 0.005 [kg/m3] | surface tension liquid-gas, w1 = 0.00504 [mN/m] | surface tension liquid-gas, w1 = 0.01 [mN/m] | surface tension liquid-gas, w1 = 0.02001 [mN/m] | surface tension liquid-gas, w1 = 0.03 [mN/m] | surface tension liquid-gas, w1 = 0.03999 [mN/m] | surface tension liquid-gas, w1 = 0.05 [mN/m]
298 K | 999.1 | 71.53 | 71.64 | 71.7 | 71.85 | 71.98 | 72.12
308 K | – | 69.85 | 69.98 | 70.15 | 70.31 | 70.44 | 70.56
318 K | – | 68.58 | 68.6 | 68.84 | 68.87 | 69.09 | 69.23
328 K | – | 66.76 | 66.84 | 67.01 | 67.19 | 67.28 | 67.5

CC(C)[C@H](N)C(=O)O [L-valine] + O
[1]
Settings | mass density, w1 = 0.005 [kg/m3] | surface tension liquid-gas, w1 = 0.005 [mN/m] | surface tension liquid-gas, w1 = 0.01 [mN/m] | surface tension liquid-gas, w1 = 0.02 [mN/m] | surface tension liquid-gas, w1 = 0.03 [mN/m] | surface tension liquid-gas, w1 = 0.04 [mN/m]
298 K | 998.1 | 70.53 | 70.5 | 69.48 | 68.4 | 67.12
308 K | – | 69.19 | 68.93 | 68.17 | 67.08 | 66.41
318 K | – | 67.61 | 67.61 | 66.54 | 65.36 | 64.53
328 K | – | 66.3 | 66.02 | 65.14 | 63.84 | 63.26

CCO [ethanol] + O
surface tension liquid-gas [mN/m], [1]
Settings | w1 = 0.05 | w1 = 0.1 | w1 = 0.15 | w1 = 0.2
298 K | 55.14 | 47.34 | 41.96 | 38.2
313 K | 53.13 | 45.92 | 40.41 | 36.71

O=C(O)CC(O)C(=O)O (stereo not drawn) [hydroxybutanedioic acid] + O
[1]
Settings | mass density, w1 = 0.01 [kg/m3] | surface tension liquid-gas, w1 = 0.01049 [mN/m] | surface tension liquid-gas, w1 = 0.02026 [mN/m] | surface tension liquid-gas, w1 = 0.03004 [mN/m] | surface tension liquid-gas, w1 = 0.04002 [mN/m] | surface tension liquid-gas, w1 = 0.06001 [mN/m] | surface tension liquid-gas, w1 = 0.07998 [mN/m] | surface tension liquid-gas, w1 = 0.1 [mN/m]
298 K | 1000.8 | 71.39 | 71.2 | 71.09 | 70.92 | 70.61 | 70.44 | 70.2
308 K | – | 69.64 | 69.49 | 69.42 | 69.28 | 69.18 | 68.83 | 68.62
318 K | – | 68.16 | 68.16 | 68.11 | 67.78 | 67.63 | 67.49 | 67.25
328 K | – | 66.67 | 66.54 | 66.48 | 66.43 | 66.24 | 66.05 | 65.89

O [water]
[2]
Settings | surface tension liquid-gas
298 K | 71.52 mN/m [middle of 7 runs]
308 K | 69.73 mN/m [middle of 7 runs]
313 K | 69.89 mN/m
318 K | 68.48 mN/m [middle of 7 runs]
328 K | 66.76 mN/m [middle of 7 runs]

O [water] + CCO
[1], w2 = 0
Settings | surface tension liquid-gas [mN/m]
298 K | 72.04
313 K | 69.89

O [water] + CSCC[C@H](N)C(=O)O
[1], w2 = 0
Settings | surface tension liquid-gas [mN/m]
298 K | 71.52
308 K | 69.94
318 K | 68.54
328 K | 66.78

O [water] + C[C@H](O)C(=O)O
[1], w2 = 0
Settings | surface tension liquid-gas [mN/m]
298 K | 71.53
308 K | 70.02
318 K | 68.48
328 K | 67.18

O [water] + NC(=O)CC[C@H](N)C(=O)O
[1], w2 = 0
Settings | surface tension liquid-gas [mN/m]
298 K | 71.06
308 K | 69.1
318 K | 68.31
328 K | 66.41

O [water] + N[C@@H](CO)C(=O)O
[1], w2 = 0
Settings | surface tension liquid-gas [mN/m]
298 K | 71.46
308 K | 69.71
318 K | 68.51
328 K | 66.66

O [water] + O=C(O)CC(O)C(=O)O
[1], w2 = 0
Settings | surface tension liquid-gas [mN/m]
298 K | 71.52
308 K | 69.73
318 K | 68.3
328 K | 66.81

O [water] + O=C(O)[C@@H]1CCCN1
[1], w2 = 0
Settings | surface tension liquid-gas [mN/m]
298 K | 71.61
308 K | 70.1
318 K | 68.56
328 K | 66.76
